Experimental data taken from US20060229433A1, “Modified antiviral peptides with increased activity and cell membrane affinity” (priority 2003, published 2006).
Where “and” joins values, the source holds several entries; their conditions need not be identical. Equal entries are not always repeated. Bridge positions count the residues as written; N and C are the ends. Square brackets hold non-standard residues; d marks the D form. Ends that are not written are not given here. Peptide text beside a SMILES is read from it. I, II: the chains in the order shown. Ava = NCCCCC(=O)O; βAla = NCCC(=O)O

Key:
Type in all cases: cell-based
HIV-1 NL 4-3 [1] = assay: HIV-1 infection of C8166 cells (syncytia formation, p24 ELISA) with HIV-1 NL 4-3; set-up: key: ++, +, (+), (+)− and − represent decreasing numbers of syncitia formed.; ++, +, (+), (+)− and − represent decreasing numbers of syncitia formed.; ++, +, (+), (+)− and − represent decreasing numbers of syncitia formed.; ++, +, (+), (+)− and − represent decreasing numbers of syncitia formed.; ++, +, (+), (+)− and − represent decreasing numbers of syncitia formed; details: Table 2
Method: (§1) HIV-1 NL 4-3 isolate (Adachi et al., 1986; Barré-Sinoussi et al., 1983) and highly cytopathic Zairian HIV-1 NDK isolate (Ellrodt et al., 1984) was propagated in permissive CEM cells (Nara et al., 1987). Uninfected CEM and C8166 (Salahuddin et al., 1983) were maintained in RPMI 1640 (R10) with ultraglutamine (cambrex, Vervier, Belgium), penicillin (100 U/ml), streptomycin (100 μg/ml), and 10% heat-inactivated fetal calf serum (Cambrex).
(§2) Samples of 3×10^5/100 μL C8166 cells were preincubated in 96-well microtiter plates in culture medium containing various concentrations of peptide. After a 1 h treatment at 37° C., 100 μl of diluted viral solution of HIV-1 was added. The cells were exposed to the virus for 1 h at 37° C. at a multiplicity of infection of 1000 TCID50 per ml. The cells were washed three times and cultured at 3×10^5/ml of R10 with the treatment in 24-well plates incubated at 37° C. C8166 culture medium was replaced at Day-4 post-infection. The treatment was permanent before virus adsorption, during virus adsorption and after infection. Assays on C8166 cells have been performed at least twice and in duplicate. Toxicity was evaluated by daily cell count and trypan-blue exclusion assay. Infection of C8166 T-cells with HIV-1 was assessed by virus-induced cytopathic effects (syncytia formation) and by quantification of cell free p24 viral protein in the culture supernatants. Measurements of HIV-1 p24^gag concentration in the culture supernatants were achieved by ELISA (ALLIANCE® HIV-1 p24 kit, Perkin Elmer, life sciences, USA).

HIV-1 NL 4-3 [2] = assay: as above; set-up: key: ++, +, (+), (+)− and − represent decreasing numbers of syncitia formed; ++, +, (+), (+)− and − represent decreasing numbers of syncitia formed; ++, +, (+), (+)− and − represent decreasing numbers of syncitia formed; ++, +, (+), (+)− and − represent decreasing numbers of syncitia formed; ++, +, (+), (+)− and − represent decreasing numbers of syncitia formed; details: Table 1
Method: as §1, §2

HIV-1 NL 4-3 [3] = assay: as above; details: for IC50: C8166 cells, HIV-1 subtype B NL 4-3, Table 3
Method: as §1, §2

HIV-1 NL 4-3 [4] = assay: Infection of human peripheral blood lymphocytes (PBL) with NL 4-3 strain, p24 ELISA
Method: Peripheral blood lymphocytes from an HIV-1 negative donor were grown as described earlier, maintained in RPMI 1640 with ultraglutamine, supplemented with IL2 (20 μg/ml), penicillin (100 U/ml), streptomycin (100 μg/ml), and 10% heat-inactivated fetal calf serum. Cells were stimulated three days in the medium supplemented with phytohemagglutinin (20 U/ml PHA P, DIFCO, Detroit Mich.).
Samples of 10^6/100 μL PBL cells were preincubated in 96-well microtiter plates in culture medium containing various concentrations of peptides. After a 1 h treatment at 37° C., 100 μl of diluted viral solution of HIV-1 was added. The cells were exposed to the virus for 1 h at 37° C. at a multiplicity of infection of 1000 TCID50 per ml. The cells were washed three times and cultured at […] of medium with the treatment in 24-well plates incubated at 37° in culture medium with the peptides in 5% CO2. The treatment was permanent before virus adsorption, during virus adsorption and after infection. The PBL culture medium was replaced every 3-4 days during three weeks always in the presence of peptide. The cell viability was assessed by cell counts and trypan-blue exclusion assay. The viral production in the culture supernatant was quantified by p24 ELISA test, as described earlier. All the experiments have been done in blind-tests. Tests have been done in duplicate.

## Cc1cn([C@H]2C[C@H](N=[N+]=[N-])[C@@H](CO)O2)c(=O)[nH]c1=O [AZT, reference compound]
HIV-1 NL 4-3 [1]; 1 μM
  Day 4 syncitia formed: −
  Day 5 syncitia formed: −
  Day 6 syncitia formed: −
  Day 7 syncitia formed: −
HIV-1 NL 4-3 [2]; 1 μM
  Day 4 syncitia formed: −
  Day 5 syncitia formed: −
  Day 6 syncitia formed: −
  Day 7 syncitia formed: −
HIV-1 NL 4-3 [3]; Day 4, 1 μM, Table 1
  P 24: NEG
HIV-1 NL 4-3 [3]; Day 4, 1 μM, Table 2
  P 24: NEG
HIV-1 NL 4-3 [3]; Day 7, 1 μM, Table 1
  P 24: NEG

## CC(C)C[C@H](NC(=O)[C@@H]1CCCN1C(=O)[C@H](CO)NC(=O)[C@H](Cc1ccc(O)cc1)NC(=O)CNC(=O)[C@H](CCC(N)=O)NC(=O)[C@@H](N)CCCNC(=N)N)C(=O)NCCCC[C@H](NC(=O)[C@H](CC(C)C)NC(=O)[C@@H]1CCCN1C(=O)[C@H](CO)NC(=O)[C@H](Cc1ccc(O)cc1)NC(=O)CNC(=O)[C@H](CCC(N)=O)NC(=O)[C@@H](N)CCCNC(=N)N)C(=O)NCCC(=O)O [RL dimer, (RQGYSPL)2-K-βA, reference compound] (I: H-RQGYSPLK[βAla]-OH / II: H-RQGYSPL; amide I:8-II:C; N-terminus assumed)
HIV-1 NL 4-3 [4]; PBL, NL 4-3 strain, Table 4
  IC50: 10 nM
  IC100: 0.1 µM
HIV-1 NL 4-3 [3]
  IC50: 20 nM

## N=C(N)NCCC[C@H](N)C(=O)N[C@@H](CCC(N)=O)C(=O)NCC(=O)N[C@@H](Cc1ccc(O)cc1)C(=O)N[C@@H](CO)C(=O)NCCCC[C@H](NC(=O)[C@H](CO)NC(=O)[C@H](Cc1ccc(O)cc1)NC(=O)CNC(=O)[C@H](CCC(N)=O)NC(=O)[C@@H](N)CCCNC(=N)N)C(=O)NCCCCC(=O)O [RS dimer valeric acid, (RQGYS)2-K—NHCH2CH2CH2CH2COOH] (I: H-RQGYSK[Ava]-OH / II: H-RQGYS; amide I:6-II:C)
HIV-1 NL 4-3 [3]
  IC50: 50 nM

## N=C(N)NCCC[C@H](N)C(=O)N[C@@H](CCC(N)=O)C(=O)NCC(=O)N[C@@H](Cc1ccc(O)cc1)C(=O)N[C@@H](CO)C(=O)NCCCCC(=O)O [RS monomer valeric acid, RQGYS-NHCH2CH2CH2CH2COOH] (H-RQGYS[Ava]-OH)
HIV-1 NL 4-3 [3]
  IC50: 200 nM

## N=C(N)NCCC[C@H](N)C(=O)N[C@@H](CCC(N)=O)C(=O)NCC(=O)N[C@@H](Cc1ccc(O)cc1)C(=O)N[C@@H](CO)C(=O)NCCCC[C@H](NC(=O)[C@H](CO)NC(=O)[C@H](Cc1ccc(O)cc1)NC(=O)CNC(=O)[C@H](CCC(N)=O)NC(=O)[C@@H](N)CCCNC(=N)N)C(=O)NCCC(=O)O [RS, (RQGYS)2-K-βA-OH, reference compound] (I: H-RQGYSK[βAla]-OH / II: H-RQGYS; amide I:6-II:C; N-terminus assumed)
HIV-1 NL 4-3 [3]
  IC50: 100 nM

## GPGRAF [SPC3 monomer, GPGRAF, reference compound]
HIV-1 NL 4-3 [3]
  IC50: > 10000 nM

## RQGYSPL [RL monomer, RQGYSPL, reference compound]
HIV-1 NL 4-3 [3]
  IC50: 500 nM

## SPC3-(ε-aminocaproic acid) [S4]
HIV-1 NL 4-3 [2]; 0.5 μM
  Day 4 syncitia formed: −
  Day 5 syncitia formed: +
  Day 6 syncitia formed: +
  Day 7 syncitia formed: ++
HIV-1 NL 4-3 [2]; 1 μM
  Day 4 syncitia formed: −
  Day 5 syncitia formed: +
  Day 6 syncitia formed: +
  Day 7 syncitia formed: ++
HIV-1 NL 4-3 [2]; 2 μM
  Day 4 syncitia formed: −
  Day 5 syncitia formed: +
  Day 6 syncitia formed: +
  Day 7 syncitia formed: ++
HIV-1 NL 4-3 [2]; 5 μM
  Day 4 syncitia formed: −
  Day 5 syncitia formed: +
  Day 6 syncitia formed: +
  Day 7 syncitia formed: ++
HIV-1 NL 4-3 [4]; on PBL
  IC100: 0.5 µM
HIV-1 NL 4-3 [3]; Day 4, 0.5 μM, Table 1
  P 24: 43 pg/mL and 28 pg/mL
HIV-1 NL 4-3 [3]; Day 4, 2 μM, Table 1
  P 24: 17 pg/mL and 14 pg/mL
HIV-1 NL 4-3 [3]; Day 7, 0.5 μM, Table 1
  P 24: 19801 pg/mL and 25000 pg/mL
HIV-1 NL 4-3 [3]; Day 7, 1 μM, Table 1
  P 24: 19801 pg/mL and 21640 pg/mL
HIV-1 NL 4-3 [3]; Day 7, 2 μM, Table 1
  P 24: 17872 pg/mL and 24806 pg/mL
HIV-1 NL 4-3 [3]; Day 7, 5 μM, Table 1
  P 24: 21120 pg/mL and 15674 pg/mL

## SPC3-Kpam [S7]
HIV-1 NL 4-3 [1]; 1 μM
  Day 4 syncitia formed: (+)
  Day 5 syncitia formed: +
  Day 6 syncitia formed: ++
  Day 7 syncitia formed: ++
HIV-1 NL 4-3 [1]; 5 μM
  Day 4 syncitia formed: −
  Day 5 syncitia formed: −
  Day 6 syncitia formed: − and +
  Day 7 syncitia formed: + and ++
HIV-1 NL 4-3 [3]; Day 4, 5 μM, Table 2
  P 24: NEG

## SPC3-Penetratin [S2]
HIV-1 NL 4-3 [1]; 0.05 μM
  Day 4 syncitia formed: (+)
  Day 5 syncitia formed: + and ++
  Day 6 syncitia formed: ++
  Day 7 syncitia formed: ++
HIV-1 NL 4-3 [1]; 0.1 μM
  Day 4 syncitia formed: (+)
  Day 5 syncitia formed: +
  Day 6 syncitia formed: +
  Day 7 syncitia formed: ++
HIV-1 NL 4-3 [1]; 0.5 μM
  Day 4 syncitia formed: −
  Day 5 syncitia formed: −
  Day 6 syncitia formed: −
  Day 7 syncitia formed: (+) and +
HIV-1 NL 4-3 [1]; 1 μM
  Day 4 syncitia formed: −
  Day 5 syncitia formed: −
  Day 6 syncitia formed: −
  Day 7 syncitia formed: −
HIV-1 NL 4-3 [2]; 0.5 μM
  Day 4 syncitia formed: −
  Day 5 syncitia formed: −
  Day 6 syncitia formed: −
  Day 7 syncitia formed: +
HIV-1 NL 4-3 [2]; 1 μM
  Day 4 syncitia formed: −
  Day 5 syncitia formed: −
  Day 6 syncitia formed: −
  Day 7 syncitia formed: −
HIV-1 NL 4-3 [2]; 2 μM
  Day 4 syncitia formed: −
  Day 5 syncitia formed: −
  Day 6 syncitia formed: −
  Day 7 syncitia formed: −
HIV-1 NL 4-3 [4]; on PBL
  IC100: 0.01 µM
HIV-1 NL 4-3 [3]; Day 4, 0.5 μM, Table 1
  P 24: NEG
HIV-1 NL 4-3 [3]; Day 4, 0.5 μM, Table 2
  P 24: 2 pg/mL
HIV-1 NL 4-3 [3]; Day 4, 1 μM, Table 1
  P 24: NEG
HIV-1 NL 4-3 [3]; Day 4, 1 μM, Table 2
  P 24: NEG
HIV-1 NL 4-3 [3]; Day 4, 2 μM, Table 1
  P 24: NEG
HIV-1 NL 4-3 [3]; Day 4, 5 μM, Table 1
  P 24: NEG
HIV-1 NL 4-3 [3]; Day 7, 0.5 μM, Table 2
  P 24: 115 pg/mL and 91 pg/mL
HIV-1 NL 4-3 [3]; Day 7, 1 μM, Table 1
  P 24: 181 pg/mL and 245 pg/mL
